Experimental data: US20140322315A1, “CYSTEAMINE AND/OR CYSTAMINE FOR TREATING ISCHEMIC INJURY” (The Regents of the University of California, priority 2011, published 2014)

Tested on: adiponectin
Experiment: Serum total and multimeric adiponectin in subjects with NAFLD treated 24 weeks with EC-cysteamine
Format: in vivo, human
Description: Eleven children ≧10 years, with biopsy-proven NAFLD and an alanine aminotransferase (ALT) level ≧60 IU/L, were enrolled. They were either newly diagnosed or had not received specific therapy for NAFLD such as vitamin E or insulin-sensitizing drugs for at least 3 months before entering the study. All had undertaken standard of care lifestyle changes involving diet and exercise for more than 3 months. The study's primary outcome measure was normalization (≦40 IU/L) or 50% reduction in baseline serum ALT at 24 weeks of EC-cysteamine therapy; these subjects were deemed responders.
Subjects were treated for 24 wks and remained monitored for 24 weeks following its discontinuation. The mean EC-cysteamine dose ingested was 654 mg twice daily or 15.2 mg/kg/day (median dose 900 mg) for 24 wks.
During the pilot study blood was collected at pre-defined intervals. Serum was stored at −80° C. until time of assay. Adequate serum volumes were available in 10 of the 11 subjects with NAFLD and only up to 16 weeks post-treatment.
Total and multimeric adiponectin levels were measured in serum taken from: (1) subject with NAFLD collected at 0 and 24 wks of cysteamine therapy and again 16 wks after stopping therapy (i.e., 40 weeks); (2) pretreated 0-week subjects with NAFLD and adults without NAFLD at room temperature and at 37° C. and also after incubation with cysteamine 90 μM for 1 hour at 37° C.; and (3) pretreated 0-week subjects with NAFLD before and after incubation with cysteamine at varying concentrations (15, 30, 45, 60, 90, 120 μM) for 1 hour at 37° C. to establish dose-response profile.
Sodium dodecyl sulfate polyacrylamide gel electrophoresis (SDS-PAGE) was performed according to standard Laemmli's method. Sample buffer for non-reducing, non-heat denaturing conditions contained 3% SDS; 50 mmol/1 Tris-HCL, pH 6.8 and 20% glycerol. Proteins were separated using 3-8% Tris-Acetate Gels (Invitrogen, Carlsbad Calif.) with Tris-Acetate running buffer per manufacturer instructions. For immunoblotting, proteins were transferred to nitrocellulose membranes. Membranes were washed with Tween (Tris-buffered Saline, 0.1% […]) and incubated with monoclonal antibody (1:500 BD Transduction Laboratories, San Diego, Calif.). After washing with Tris-buffered saline with 0.1% Tween (4×5 min) membranes were incubated with L-COR secondary antibodies (LI-COR Biotechnology, Lincoln Nebr.) at 1:20,000. Adiponectin multimers were detected and quantified using the LICOR imager and software analysis program. Relative distribution of adiponectin multimers was determined by dividing band density by total density (cellular adiponectin) or by total adiponectin as determined by ELISA (Millipore, Billerica, Mass.). The percentage of adionectin multimer was then multiplied by the total adiponectin level to calculate absolute oligomer value.

[1] = after discontinuing therapy at 24 weeks, P=0.01

NCCS.O=C(O)C(O)C(O)C(=O)O (stereo not shown) [cysteamine bitartrate, Cysteamine bitartrate]
mean percent change of HMW adiponectin from baseline (7 responders, 24 weeks): 87.7%
mean percent change of LMW adiponectin from baseline (7 responders, 24 weeks): 33.9%
mean percent change of MMW adiponectin from baseline (7 responders, 24 weeks): 13.7%
mean percent change of total adiponectin from baseline (7 responders, 24 weeks): 57.5%
all adiponectin multimer levels, difference from baseline (40-week timepoint (16 weeks off therapy)): ≤ 2%
LMW adiponectin change between 24-week and 40-week timepoints (after discontinuing therapy at 24 weeks, P=0.009): significant mean percent reduction
MMW adiponectin change between 24-week and 40-week timepoints [1]: significant mean percent reduction
total adiponectin change between 24-week and 40-week timepoints [1]: significant mean percent reduction
HMW adiponectin change between 24-week and 40-week timepoints (after discontinuing therapy at 24 weeks, P=0.02): significant mean percent reduction
mean percent increase of total adiponectin from baseline (all subjects, 0-24 weeks oral EC-cysteamine, P=0.05): 49.3%
mean percent increase of HMW adiponectin from baseline (all subjects, 24 weeks oral EC-cysteamine (15.2 mg/kg/day), P=0.02): 53%
mean percent increase of MMW adiponectin from baseline (all subjects, 24 weeks oral EC-cysteamine, P=0.02): 19%
mean percent increase of LMW adiponectin from baseline (all subjects, 24 weeks oral EC-cysteamine, P=0.03): 29.4%
